Data: patent US8241680B2, “Nutraceutical product containing anatabine and yerba maté” (priority 2010, dated 2012)

Experiments:
[1] = Stability analysis of Formula I (purity by HPLC on storage); type: physicochemical
From the text: Several batches of Formula I produced by reacting benzophenoneimine with aminomethylpyridine in the absence of benzene were stored refrigerated and also at room temperature.

[2] = Stability analysis of anatabine base with and without BHT as a preservative; type: physicochemical
Experimental: See, for example, Tables 3 and 4 in Examples 4 and 5, respectively. Purity of the anatabine may be retained for extended periods of time. […] Further, anatabine remains stable when stored at a variety of temperatures. For example, the anatabine retains the indicated purity when stored at −20° C. to −10° C., −20° C. to 0° C., −10° C. to 0° C., 0° C. to 4° C., 2° C. to 8° C., 5° C. to 10° C., 10° C. to 15° C., 15° C. to 25° C., or 25° C. to 28° C. Stability is determined by any suitable art-recognized method. For example, anatabine stability may be monitored by high performance liquid chromatography (HPLC), liquid chromatography-mass spectroscopy (LC-MS), or nuclear magnetic resonance (NMR).
Anatabine base stability was analyzed with and without BHT (3,5-di-tert-butyl-4-hydroxytoluene). The initial purity of BHT-free anatabine base was 94.95%. The initial purity of anatabine base with BHT was 94.87%.

## c1ccc(C(=NCc2cccnc2)c2ccccc2)cc1 [Formula I, benzylhydrylidene-pyridin-3-ylmethyl-amine]
[1]; day 1, 2-8° C.
  Purity (%) (stored at 2-8° C.): 88.61%
[1]; day 1, 25-28° C.
  Purity (%) (stored at 25-28° C.): 88.93%
[1]; day 2, 2-8° C.
  Purity (%) (stored at 2-8° C.): 88.83%
[1]; day 2, 25-28° C.
  Purity (%) (stored at 25-28° C.): 85.49%
[1]; day 3, 2-8° C.
  Purity (%) (stored at 2-8° C.): 88.30%
[1]; day 3, 25-28° C.
  Purity (%) (stored at 25-28° C.): 88.02%
[1]; day 6, 2-8° C.
  Purity (%) (stored at 2-8° C.): 88.83%
[1]; day 6, 25-28° C.
  Purity (%) (stored at 25-28° C.): 86.62%
[1]; day 12, 2-8° C.
  Purity (%) (stored at 2-8° C.): 88.75%
[1]; day 12, 25-28° C.
  Purity (%) (stored at 25-28° C.): 87.47%
[1]; day 18, 2-8° C.
  Purity (%) (stored at 2-8° C.): 88.46%
[1]; day 18, 25-28° C.
  Purity (%) (stored at 25-28° C.): 87.25%
[1]; refrigerated
  Purity on storage: constant
[1]; room temperature
  Deviation of purity on storage: 1-2%

## C1=CCC(c2cccnc2)NC1 (stereo not shown) [anatabine base, anatabine]
[2]; BHT-free
  Initial purity: 94.95%
[2]; day 1, 2-8° C., with BHT
  Purity (%) (with BHT): 93.26%
[2]; day 1, 2-8° C.
  Purity (%) (without BHT): 94.44%
[2]; day 1, 25-28° C., with BHT
  Purity (%) (with BHT): 93.27%
[2]; day 1, 25-28° C.
  Purity (%) (without BHT): 89.63%
[2]; day 1, −20° C., with BHT
  Purity (%) (with BHT): 94.26%
[2]; day 1, −20° C.
  Purity (%) (without BHT): 93.90%
[2]; day 2, 2-8° C., with BHT
  Purity (%) (with BHT): 94.83%
[2]; day 2, 2-8° C.
  Purity (%) (without BHT): 94.05%
[2]; day 2, 25-28° C., with BHT
  Purity (%) (with BHT): 92.73%
[2]; day 2, 25-28° C.
  Purity (%) (without BHT): 87.59%
[2]; day 2, −20° C., with BHT
  Purity (%) (with BHT): 94.73%
[2]; day 2, −20° C.
  Purity (%) (without BHT): 94.62%
[2]; day 3, 2-8° C., with BHT
  Purity (%) (with BHT): 94.26%
[2]; day 3, 2-8° C.
  Purity (%) (without BHT): 91.65%
[2]; day 3, 25-28° C., with BHT
  Purity (%) (with BHT): 87.44%
[2]; day 3, 25-28° C.
  Purity (%) (without BHT): 80.74%
[2]; day 3, −20° C., with BHT
  Purity (%) (with BHT): 94.62%
[2]; day 3, −20° C.
  Purity (%) (without BHT): 93.87%
[2]; day 12, 2-8° C., with BHT
  Purity (%) (with BHT): 94.18%
[2]; day 12, 2-8° C.
  Purity (%) (without BHT): 90.12%
[2]; day 12, 25-28° C., with BHT
  Purity (%) (with BHT): 85.10%
[2]; day 12, 25-28° C.
  Purity (%) (without BHT): 79.59%
[2]; day 12, −20° C., with BHT
  Purity (%) (with BHT): 94.74%
[2]; day 12, −20° C.
  Purity (%) (without BHT): 94.01%
[2]; with BHT
  Initial purity: 94.87%
